Measured values reported in PubChem BioAssay (NCI).
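Results reflect a 48-hour exposure of cells in 96-well plates to compound at five concentrations. The concentration for 50% growth inhibition is given as GI50. TGI: concentration producing complete growth inhibition.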

Assays:
Assay in all cases: growth of human tumour cells (NCI), 48 h
786-0 renal = system: 786-0 renal
CAKI-1 renal = system: CAKI-1 renal
EKVX NSCLC = system: EKVX NSCLC
HCC-2998 colon = system: HCC-2998 colon
HCT-116 colon = system: HCT-116 colon
KM12 colon = system: KM12 colon
OVCAR-3 ovarian = system: OVCAR-3 ovarian
SK-MEL-2 melanoma = system: SK-MEL-2 melanoma
U251 CNS = system: U251 CNS
UO-31 renal = system: UO-31 renal

| SMILES | TGI (786-0 renal) [µM] | GI50 (CAKI-1 renal) [µM] | TGI (CAKI-1 renal) [µM] | TGI (EKVX NSCLC) [µM] | TGI (HCC-2998 colon) [µM] | TGI (HCT-116 colon) [µM] | TGI (KM12 colon) [µM] | TGI (OVCAR-3 ovarian) [µM] | TGI (SK-MEL-2 melanoma) [µM] | TGI (U251 CNS) [µM] | TGI (UO-31 renal) [µM] | GI50 (786-0 renal) [µM] | GI50 (EKVX NSCLC) [µM] | GI50 (HCC-2998 colon) [µM] | GI50 (HCT-116 colon) [µM] | GI50 (KM12 colon) [µM] | GI50 (OVCAR-3 ovarian) [µM] | GI50 (SK-MEL-2 melanoma) [µM] | GI50 (U251 CNS) [µM] | GI50 (UO-31 renal) [µM] |
| --- | --- | --- | --- | --- | --- | --- | --- | --- | --- | --- | --- | --- | --- | --- | --- | --- | --- | --- | --- | --- |
| C[C@@H](CN1CC(=O)NC(=O)C1)N1CC(=O)NC(=O)C1 | 1120 | 80.7 | 772 | 546 | 1540 | 750 | 2170 | 767 | 754 | 839 | 1060 |  |  |  |  |  |  |  |  |  |
| O=C1c2ccccc2NC1(c1ccccc1)c1c(-c2ccccc2)[nH]c2ccccc12 (centres undefined) | > 100 |  | > 100 | > 100 | > 100 | > 100 | > 100 | > 100 | > 100 | > 100 | > 100 |  |  |  |  |  |  |  |  |  |
| O=S(=O)(N/N=C/c1cccc(Cl)c1Cl)c1ccccc1 | > 100 |  | > 100 | > 100 | > 100 | > 100 | > 100 | > 100 | > 100 | > 100 | > 100 |  |  |  |  |  |  |  |  |  |
| CC(C)CC(=O)Nc1n[nH]c2c1CN(C(=O)C1CCN(C)CC1)C2(C)C | > 10 | 4.79 | > 10 | > 10 | > 10 | > 10 | > 10 | 5.25 | 2.8 | > 10 | > 10 | 2.07 | 1.14 | 1.17 | 0.362 | 0.72 | 0.435 | 0.524 | 0.439 | > 10 |
| CN1C(c2ccccc2)CS(=O)(=O)CS1(=O)=O (centres undefined) | > 100 |  | > 100 | > 100 | > 100 | > 100 | > 100 | 88.7 | > 100 | > 100 | > 100 |  |  |  |  |  |  |  |  |  |
| CN(C)C/C=C/C(=O)Nc1cc2c(Nc3ccc(F)c(Cl)c3F)ncnc2cc1OCCOC(F)F | 3.56 | < 0.01 | 1.13 | 3 | 2.68 | 2.98 | 8.23 | 1.73 | 3.36 | 9.23 | 1.78 | 0.348 | < 0.0302 | 1.16 | 0.625 | 2.04 | 0.101 | 1.46 | 1.99 | < 0.01 |
| O=Cc1ccc(-c2ccc(-c3nc4ccccc4o3)cc2)s1 | > 100 | 25.2 | 61.1 | 77 | > 100 | 42.6 | > 100 | 45.4 | > 100 | 80.8 | > 100 | 31.9 | 20.3 | 45.2 | 19.3 | 30.3 | 16.5 | 63.4 | 29.1 | 38.5 |
| COc1ccc(-c2nc(C(=O)c3ccccc3)n(CC(=O)c3ccccc3)c2-c2ccc(OC)cc2)cc1 | > 100 | > 100 | > 100 | > 100 | > 100 | > 100 | > 100 | > 100 | > 100 | > 100 | > 100 | > 100 | > 100 | > 100 | > 100 | > 100 | > 100 | > 100 | > 100 | > 100 |
| CC(=O)N1c2ccccc2NC2=C(C(=O)N(Cc3ccccc3)C2(C)C)C1c1ccco1 (centres undefined) | > 23.1 | 3.41 | > 25 | > 25 | > 7.95 | > 25 | > 16.4 | 1.42 | > 25 | > 25 | > 25 | 1.26 | 1.73 | 0.608 | 0.692 | 0.579 | 0.208 | 1.03 | 0.665 | 1.23 |
| COc1ccc(Cc2cc3c(cc2OCC(=O)O)OCO3)cc1 | > 100 |  | > 100 | > 100 | > 100 | > 100 | > 100 | > 100 | > 100 |  | > 100 |  |  |  |  |  |  |  |  |  |
| C[C@@H]1Cc2c([nH]c3ccccc23)[C@@H](c2c(F)cc(NC3CN(CCCF)C3)cc2F)N1CC(F)(F)CO | 24.7 | 3.66 | 15.7 | 19.3 | 4 | 3.83 | 18 | 26.3 | 16.5 | 21.2 | 16.5 | 8.68 | 5.41 | 1.93 | 1.94 | 4.21 | 11.3 | 4.37 | 6.1 | 3.7 |
| COC(=O)c1c(O)c([N+](=O)[O-])cc2c1c1c(n2Cc2ccccc2)C(=O)c2ccccc2C1=O | 59.6 | 38.2 | > 100 | 82.9 | 23.2 | 17.5 | 78.5 | 69.7 | > 100 | > 100 | > 100 | 15.7 | 22.9 | 11.2 | 4.06 | 21.5 | 11.5 | 27.2 | 31 | 21.1 |
| O=C(/C=N/O)Nc1cc(Cl)c(Cl)cc1Cl | > 100 |  | 79.8 | 96.9 | > 100 | 90.1 | 84.3 | 79.5 | 54.2 | > 100 | > 100 |  |  |  |  |  |  |  |  |  |
| Cc1ccc(NC(=O)C(=O)CC(=O)C2CCOC2=O)c(C)c1 (centres undefined) | > 100 |  | > 100 | > 100 | > 100 | > 100 | > 100 | > 100 | > 100 | > 100 | > 100 |  |  |  |  |  |  |  |  |  |
| COC(=O)CCC(=O)Nc1cc(Cl)ccc1Cl | > 100 |  | > 100 | > 100 | > 100 | > 100 | > 100 | > 100 | > 100 | > 100 | > 100 |  |  |  |  |  |  |  |  |  |
| O=C(O)c1cc2ccccc2c(N=Nc2cc(C(F)(F)F)ccc2Cl)c1O | > 100 |  | > 100 | > 100 | > 100 | > 100 | > 100 | > 100 | > 100 | > 100 | > 100 |  |  |  |  |  |  |  |  |  |
| O=C(O)c1cc2ccccc2oc1=O | > 100 |  | > 100 | > 100 | > 100 | > 100 | > 100 | > 100 | > 100 | > 100 | > 100 |  |  |  |  |  |  |  |  |  |
| COc1ccc(NC(=O)CC/C(CC(=O)C(C)(C)C)=N\NC(=O)C(N)=O)cc1 | > 100 |  | > 100 | > 100 | > 100 | > 100 | > 100 | > 100 | > 100 | > 100 | > 100 |  |  |  |  |  |  |  |  |  |
| C#CCN(N=O)C(=O)NC(CCCNC(=O)OCc1ccccc1)C(=O)OCc1ccccc1 (centres undefined) | > 100 |  | 47.2 | > 100 | > 100 | > 100 | > 100 | > 100 | > 100 | > 100 | > 100 |  |  |  |  |  |  |  |  |  |
| COc1ccc(C(=O)C(c2ccc(OC)cc2)C2OC(=O)C(Cl)=C2Cl)cc1 (centres undefined) | > 100 |  | > 100 | > 100 | > 100 | > 100 | > 100 | > 100 | > 100 | > 100 | > 100 |  |  |  |  |  |  |  |  |  |
| CC1=C(C(=O)NCc2ccccc2)C(c2ccc([N+](=O)[O-])cc2)C(C(=O)NCc2ccccc2)=C(C)N1 | > 100 |  | > 100 | > 100 | > 100 | 60.6 | > 100 | > 100 | > 100 | > 100 | > 100 |  |  |  |  |  |  |  |  |  |
| CN1CCN(c2ccc(Nc3nc(N)c(C(=O)c4ccc5c(c4)OCCO5)s3)cc2)CC1 | 8.23 | 1.18 | 7 |  | > 19.6 | > 15.5 | 16.1 | 9.69 | 15.2 | 11 | 8.02 | 3.44 |  | 9.67 | 2.27 | 4.06 | 4.05 | 4.77 | 2.83 | 2.6 |
| NCCN.NCCN.O=C[O-].O=C[O-].[Co+3].[O-][Cl+3]([O-])([O-])[O-] | > 100 | > 100 | > 100 |  | > 100 | > 100 | > 100 | > 100 | > 100 | > 100 | > 100 | > 100 |  | > 100 | > 100 | > 100 | > 100 | > 100 | > 100 | > 100 |
| Cc1cc(Nc2c3ccccc3nc3ccccc23)ccc1NS(C)(=O)=O | 16.7 | 3.36 | 15.6 |  | 20.7 | 11.6 | 16.2 | 20.1 | 10.6 | 14 | 8.76 | 4.73 |  | 5.94 | 3.12 | 4.2 | 6.13 | 3.42 | 3.17 | 1.9 |
